According to patent publication US20240092835A1, “NOVEL PEPTIDES CAPABLE OF ALTERING NK CELL ACTIVITY” (Massachusetts Institute of Technology, priority 2022, published 2024):
Where no end group is shown, it is not given here.

Experiments:
CD94/NKG2C = CD94/NKG2C (Homo sapiens, UniProt P26717+Q13241); test: Steady-state surface plasmon resonance of peptide-HLA-E complex with CD94/NKG2C; type: binding; settings: steady-state SPR
Procedure: (§1) Binding affinity of novel peptides linked to HLA-E was determined using surface plasmon resonance (SPR), a methodology used to study protein-protein interactions (Tables 15-19). The peptide-HLA-E complex (generated as a single chain trimer) was immobilized on the sensor chip surface and CD94/NKG2A or CD94/NKG2C were flowed over. Steady-state surface plasmon resonance experiments were performed with a Biacore T200 instrument. CD94/NKG2x in HBS-EP+ buffer was injected as analyte in a concentration range of 0.1 μM to 102.4 μM and flow rate of 10 μL/min at 25° C. Data was fit with Prism 9.4 (GraphPad Software Inc; San Diego CA) to a “one site, specific binding” model. Series S CM5 chips were coupled to neutravidin and utilized. Biotinylated pMHC was immobilized at approximately 400 RU. KD values calculated by Biacore software are reported. Rmax, fit values were calculated by Biacore software. Rmax, theoretical values were calculated using the analyte/ligand mass ratio (0.66) multiplied by the amount of ligand coupled to the chip.

NKG2A−/NKG2C+ NK cells = test: NK cell activation markers in NKG2A-/NKG2C+ NK cells incubated with peptide and K562 expressing HLA-E (activation); type: cell-based, human; settings: for effect on NKG2A−/NKG2C+ NK cell activation (in words): K562 expressing HLA-E, CD107a, IFNG, TNF, CCL3; for percentage of CCL3+ NK cells / percentage of CD107+ NK cells / percentage of IFNG+ NK cells / percentage of TNF+ NK cells: NKG2A-/NKG2C+ NK cells, K562/HLA-E
Method in brief: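 Human myelogenous leukemia K562 cells displaying HLA-E carry the test peptides (human or HCMV origin) and are presented to NK cells; surface activation markers are scored by percent positive cells.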

CD94/NKG2A = CD94/NKG2A (Homo sapiens, UniProt P26715+Q13241); test: Steady-state surface plasmon resonance of peptide-HLA-E complex with CD94/NKG2A; type: binding; settings: for Binding of peptide-HLA-E complexes to CD94/NKG2A normalized to a theoretical Rmax: steady-state SPR
Sequence of CD94/NKG2A (P26715 94-233 limits assumed): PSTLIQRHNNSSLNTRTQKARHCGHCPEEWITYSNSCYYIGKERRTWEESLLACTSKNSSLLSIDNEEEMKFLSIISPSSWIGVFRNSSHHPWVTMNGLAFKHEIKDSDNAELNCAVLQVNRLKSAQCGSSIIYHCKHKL
Sequence of CD94/NKG2A (Q13241 32-179 limits assumed): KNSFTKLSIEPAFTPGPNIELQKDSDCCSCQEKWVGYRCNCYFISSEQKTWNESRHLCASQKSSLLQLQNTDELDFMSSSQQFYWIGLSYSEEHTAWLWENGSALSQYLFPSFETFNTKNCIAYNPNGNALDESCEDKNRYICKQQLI
Procedure: as §1

Sequence of CD94/NKG2C (P26717 94-231 limits assumed): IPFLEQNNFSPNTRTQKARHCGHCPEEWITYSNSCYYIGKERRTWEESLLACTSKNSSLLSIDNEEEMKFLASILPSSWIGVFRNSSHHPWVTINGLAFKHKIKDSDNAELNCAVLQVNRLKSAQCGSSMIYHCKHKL
Sequence of CD94/NKG2C (Q13241 32-179 limits assumed): as the sequence (Q13241 32-179 limits assumed) above

TAPARTMFL [human13, TAPARTMFL]
Binding of peptide-HLA-E complexes to CD94/NKG2C normalized to a theoretical Rmax (CD94/NKG2C; CD94/NKG2C analyte concentration 51.2 μM): 0.552
Binding of peptide-HLA-E complexes to CD94/NKG2C normalized to a theoretical Rmax (CD94/NKG2C; CD94/NKG2C analyte concentration 102.4 μM): 0.669
effect on NKG2A−/NKG2C+ NK cell activation (in words) (NKG2A−/NKG2C+ NK cells; listed as SEQ ID NO. 5): activate
effect on NKG2A−/NKG2C+ NK cell activation (in words) (NKG2A−/NKG2C+ NK cells; listed as h13): activated
percentage of CCL3+ NK cells (NKG2A−/NKG2C+ NK cells; Trial 1): 56.9%
percentage of CD107+ NK cells (NKG2A−/NKG2C+ NK cells; Trial 1): 38.3%
percentage of IFNG+ NK cells (NKG2A−/NKG2C+ NK cells; Trial 1): 18.2%
percentage of TNF+ NK cells (NKG2A−/NKG2C+ NK cells; Trial 1): 9.29%
percentage of CCL3+ NK cells (NKG2A−/NKG2C+ NK cells; Trial 2): 74.9%
percentage of CD107+ NK cells (NKG2A−/NKG2C+ NK cells; Trial 2): 57%
percentage of IFNG+ NK cells (NKG2A−/NKG2C+ NK cells; Trial 2): 28.7%
percentage of TNF+ NK cells (NKG2A−/NKG2C+ NK cells; Trial 2): 20.7%
percentage of CCL3+ NK cells (NKG2A−/NKG2C+ NK cells; Trial 3): 72.4%
percentage of CD107+ NK cells (NKG2A−/NKG2C+ NK cells; Trial 3): 71.2%
percentage of IFNG+ NK cells (NKG2A−/NKG2C+ NK cells; Trial 3): 49.2%
percentage of TNF+ NK cells (NKG2A−/NKG2C+ NK cells; Trial 3): 37.9%
percentage of CCL3+ NK cells (NKG2A−/NKG2C+ NK cells; Trial 4): 60.7%
percentage of CD107+ NK cells (NKG2A−/NKG2C+ NK cells; Trial 4): 57.1%
percentage of IFNG+ NK cells (NKG2A−/NKG2C+ NK cells; Trial 4): 40.8%
percentage of TNF+ NK cells (NKG2A−/NKG2C+ NK cells; Trial 4): 33%
percentage of CCL3+ NK cells (NKG2A−/NKG2C+ NK cells; Trial 5): 61.9%
percentage of CD107+ NK cells (NKG2A−/NKG2C+ NK cells; Trial 5): 56.2%
percentage of IFNG+ NK cells (NKG2A−/NKG2C+ NK cells; Trial 5): 34.2%
percentage of TNF+ NK cells (NKG2A−/NKG2C+ NK cells; Trial 5): 27.4%
percentage of CCL3+ NK cells (NKG2A−/NKG2C+ NK cells; Trial 6): 40.7%
percentage of CD107+ NK cells (NKG2A−/NKG2C+ NK cells; Trial 6): 29.1%
percentage of IFNG+ NK cells (NKG2A−/NKG2C+ NK cells; Trial 6): 14.3%
percentage of TNF+ NK cells (NKG2A−/NKG2C+ NK cells; Trial 6): 8.92%
binding of peptide-HLA-E complex to CD94/NKG2A normalized to a fitted Rmax (CD94/NKG2A; CD94/NKG2A concentration 0 μM): 0.010
binding of peptide-HLA-E complex to CD94/NKG2A normalized to a fitted Rmax (CD94/NKG2A; CD94/NKG2A concentration 0.1 μM): 0.024
binding of peptide-HLA-E complex to CD94/NKG2A normalized to a fitted Rmax (CD94/NKG2A; CD94/NKG2A concentration 0.2 μM): 0.037
binding of peptide-HLA-E complex to CD94/NKG2A normalized to a fitted Rmax (CD94/NKG2A; CD94/NKG2A concentration 0.4 μM): 0.066
binding of peptide-HLA-E complex to CD94/NKG2A normalized to a fitted Rmax (CD94/NKG2A; CD94/NKG2A concentration 0.8 μM): 0.115
binding of peptide-HLA-E complex to CD94/NKG2A normalized to a fitted Rmax (CD94/NKG2A; CD94/NKG2A concentration 1.6 μM): 0.191
binding of peptide-HLA-E complex to CD94/NKG2A normalized to a fitted Rmax (CD94/NKG2A; CD94/NKG2A concentration 3.2 μM): 0.302
binding of peptide-HLA-E complex to CD94/NKG2A normalized to a fitted Rmax (CD94/NKG2A; CD94/NKG2A concentration 6.4 μM): 0.432
binding of peptide-HLA-E complex to CD94/NKG2A normalized to a fitted Rmax (CD94/NKG2A; CD94/NKG2A concentration 12.8 μM): 0.558
binding of peptide-HLA-E complex to CD94/NKG2A normalized to a fitted Rmax (CD94/NKG2A; CD94/NKG2A concentration 25.6 μM): 0.685
binding of peptide-HLA-E complex to CD94/NKG2A normalized to a fitted Rmax (CD94/NKG2A; CD94/NKG2A concentration 51.2 μM): 0.819
binding of peptide-HLA-E complex to CD94/NKG2A normalized to a fitted Rmax (CD94/NKG2A; CD94/NKG2A concentration 102.4 μM): 0.961
Binding of peptide-HLA-E complexes to CD94/NKG2A normalized to a theoretical Rmax (CD94/NKG2A; CD94/NKG2A analyte concentration 0.000 μM): 0.006
Binding of peptide-HLA-E complexes to CD94/NKG2A normalized to a theoretical Rmax (CD94/NKG2A; CD94/NKG2A analyte concentration 0.100 μM): 0.015
Binding of peptide-HLA-E complexes to CD94/NKG2A normalized to a theoretical Rmax (CD94/NKG2A; CD94/NKG2A analyte concentration 0.200 μM): 0.023
Binding of peptide-HLA-E complexes to CD94/NKG2A normalized to a theoretical Rmax (CD94/NKG2A; CD94/NKG2A analyte concentration 0.400 μM): 0.042
Binding of peptide-HLA-E complexes to CD94/NKG2A normalized to a theoretical Rmax (CD94/NKG2A; CD94/NKG2A analyte concentration 0.800 μM): 0.074
Binding of peptide-HLA-E complexes to CD94/NKG2A normalized to a theoretical Rmax (CD94/NKG2A; CD94/NKG2A analyte concentration 1.600 μM): 0.122
Binding of peptide-HLA-E complexes to CD94/NKG2A normalized to a theoretical Rmax (CD94/NKG2A; CD94/NKG2A analyte concentration 3.200 μM): 0.193
Binding of peptide-HLA-E complexes to CD94/NKG2A normalized to a theoretical Rmax (CD94/NKG2A; CD94/NKG2A analyte concentration 6.400 μM): 0.277
Binding of peptide-HLA-E complexes to CD94/NKG2A normalized to a theoretical Rmax (CD94/NKG2A; CD94/NKG2A analyte concentration 12.800 μM): 0.357
Binding of peptide-HLA-E complexes to CD94/NKG2A normalized to a theoretical Rmax (CD94/NKG2A; CD94/NKG2A analyte concentration 25.600 μM): 0.439
Binding of peptide-HLA-E complexes to CD94/NKG2A normalized to a theoretical Rmax (CD94/NKG2A; CD94/NKG2A analyte concentration 51.200 μM): 0.524
Binding of peptide-HLA-E complexes to CD94/NKG2A normalized to a theoretical Rmax (CD94/NKG2A; CD94/NKG2A analyte concentration 102.400 μM): 0.615
